Source: patent US8394971B2, “Indole derivatives as selective androgen receptor modulators (SARMS)” (Janssen Pharmaceutica N.V., priority 2004, dated 2013)
Where “and” joins values, the source holds several entries; their conditions need not be identical. Equal values may be shown once.

Experiments:
[1] = molecular target: T1, androgen receptor (adenovirus AdEasy+rAR in L929 cells) (Rattus norvegicus, UniProt P15207); test: L929 Androgen Receptor Functional Assay, Adenovirus Transduction; format: cell-based; conditions: for % Activity: L929 agonist testing
T1 construct: expressed in transfected cells
T1 sequence (P15207 1-902): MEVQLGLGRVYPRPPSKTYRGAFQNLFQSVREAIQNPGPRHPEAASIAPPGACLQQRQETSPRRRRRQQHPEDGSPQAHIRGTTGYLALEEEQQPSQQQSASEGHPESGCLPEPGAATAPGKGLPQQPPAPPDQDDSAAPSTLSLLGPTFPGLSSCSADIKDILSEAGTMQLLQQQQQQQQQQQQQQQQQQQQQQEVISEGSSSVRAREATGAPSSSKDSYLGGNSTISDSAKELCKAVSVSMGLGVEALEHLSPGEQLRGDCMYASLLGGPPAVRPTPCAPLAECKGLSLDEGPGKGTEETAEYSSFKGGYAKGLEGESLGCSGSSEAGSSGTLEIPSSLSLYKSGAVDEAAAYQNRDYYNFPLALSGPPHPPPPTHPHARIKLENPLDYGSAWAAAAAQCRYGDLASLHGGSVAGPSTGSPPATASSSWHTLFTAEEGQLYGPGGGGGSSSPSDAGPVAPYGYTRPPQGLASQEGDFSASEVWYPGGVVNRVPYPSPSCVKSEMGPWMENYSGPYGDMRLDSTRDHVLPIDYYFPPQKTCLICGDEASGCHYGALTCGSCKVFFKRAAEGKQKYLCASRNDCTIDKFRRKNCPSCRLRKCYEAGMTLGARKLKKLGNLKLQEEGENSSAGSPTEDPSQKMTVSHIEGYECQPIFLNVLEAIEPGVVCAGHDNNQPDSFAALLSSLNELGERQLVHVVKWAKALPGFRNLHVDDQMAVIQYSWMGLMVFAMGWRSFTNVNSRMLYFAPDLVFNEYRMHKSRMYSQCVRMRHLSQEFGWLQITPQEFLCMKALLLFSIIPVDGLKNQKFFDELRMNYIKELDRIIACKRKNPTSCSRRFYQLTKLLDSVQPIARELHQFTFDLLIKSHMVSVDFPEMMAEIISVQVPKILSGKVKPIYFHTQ
Protocol: L929 cells were plated in 96-well plates at 20,000 cells per well, in DMEM/F12 (GIBCO) containing 10% (v/v) charcoal-treated fetal bovine serum (Hyclone) and lacking phenol red. The plates were then incubated overnight at 37° C. in 5% (v/v) humidified CO2.
Test compound dilutions were prepared in 100% (v/v) DMSO, if necessary. Each dilution was made to 1250× the final desired assay concentration.
First, 2 mL of DMEM/F12 lacking phenol red was pipetted into the wells of a 2-mL 96-well assay block. Next, 4 μL of the 1250× test compound dilutions were pipetted into each well of the assay block. The mixtures within the well were then carefully mixed by pipette.
In a 15 mL or 50 mL sterile centrifuge tube, a 2.5 nM (2.5×) dilution of R1881 (methyl-trienolone) in DMEM/F12 lacking phenol red was prepared.
In a second 15 mL or 50 mL centrifuge tube a solution containing an equal volume of DMEM to the first and an equal volume of 100% (v/v) DMSO to the volume of R1881 used in the first tube was prepared.
In a 15 mL or 50 mL sterile centrifuge tube, a dilution in DMEM/F12 of the adenovirus AdEasy+rAR at an moi of 1:500 per well was prepared.
The medium was removed from the 96-well plates by inversion and dried, inverted, very briefly. As soon as possible after medium removal, 40 μL of the diluted unlabeled test compound was added to each well, in duplicate. To each well designated for antagonist testing was added 40 μL of the 2.5 nM R1881 dilution to the wells for antagonist testing. To each well designated for agonist testing was added 40 μL of the DMSO dilution. Then 20 μL of the diluted adenovirus were added to all wells. The plates were incubated for 48 hours at 37° C. in 5% (v/v) humidified CO2.
To each well was added 100 μL of Steady-Glo luciferase assay substrate (Promega) and the plates were placed on a rotary shaker for 1 min. The plates were then incubated at room temperature in the dark for one hour. The contents of each well were then transferred to a white microtiter plate (Packard) and read on a Luminoskan Ascent (Thermo Lab Systems).
L929 AR percent activity was determined by testing dilutions of the test compound using a concentration of 3000 nM unless otherwise noted. L929 percent inhibition was determined by testing dilutions of the test compound using a concentration of 3000 nM. […] Luciferase activity per well were measured and EC50s and IC50s determined by linear regression.

[2] = tested on: testosterone-enhanced ventral prostate and seminal vesicle weights in castrated male Sprague Dawley rats; test: Ventral Prostate and Seminal Vesicle Weight In Vivo Assay; parameters: species or system rat; conditions: immature castrated rats; once daily for five days, usually orally at 40 mg/kg, with testosterone propionate 2 mg/kg s.c.
Protocol: Immature (approximately 50 g) castrated male Sprague Dawley rats (Charles River) were treated once daily for five days with test compound (usually given orally at 40 mg/kg in a volume of 0.3 mL, in 30% cyclodextrin or 0.5% methylcellulose vehicle) and with testosterone propionate (given subcutaneously by injection at the nape of the neck at 2 mg/kg, in a volume of 0.1 mL in sesame oil). On the sixth day, the rats were euthanized by asphyxiation in carbon dioxide. Ventral prostates and seminal vesicles were removed and their wet weights determined.
A test compound was said to be “active” if the non weight adjusted prostate weight was ≦40 mg or the % Inhibition prostate weight, body weight adjusted was ≧40% @2 mg/day dosage.

[3] = molecular target: T2, androgen receptor (adenovirus AdEasy+rAR in COS-7 cells) (Rattus norvegicus, UniProt P15207); test: COS-7 Whole-Cell Androgen Receptor Binding Assay, Adenovirus Transduction; conditions: for % Inhibition / inhibition at 3 µM: COS binding, 3000 nM unless otherwise noted
T2 construct: expressed in transfected cells
T2 sequence (P15207 1-902): T1 sequence (P15207 1-902)
Protocol: COS-7 cells were plated in 96-well plates at 20,000 cells per well, in a solution of DMEM/F12 (GIBCO) containing 10% (v/v) charcoal-treated fetal bovine serum (Hyclone) and lacking phenol red. The cells were then incubated overnight at 37° C. in 5% (v/v) humidified CO2.
Test compound solutions were prepared by diluting the test compound in 100% (v/v) DMSO, if necessary.
Next, 1 mL of DMEM/F12 lacking phenol red was pipetted into each of the wells of a 2-mL 96-well assay block. […] The wells were carefully mixed by pipette.
In a 15 mL or 50 mL sterile centrifuge tube, a dilution in DMEM/F12 of the adenovirus AdEasy+rAR at a moi of 1:50 per well was prepared.
The medium was removed from the 96-well plates by inversion and the plates dried very briefly, inverted, on a sterile towel. As soon as possible after medium removal, 40 μL of the diluted test compound was added to each well, in duplicate. […] The plates were then incubated for 48 hours at 37° C. in 5% (v/v) humidified CO2.
The medium was removed from the above incubated plates by inversion and dried. Each well was then washed with 0.35 mL of 1×PBS. The PBS was then removed from the plates by inversion and the plates dried.
To each well was then added 50 μL of 0.5% (v/v) Triton X-100 (Sigma) in 1×PBS and the plates placed on a rotary shaker for 5 min. The contents of each well were then transferred to an OptiPlate-96 (Packard) scintillation plate. To each well was then added 0.2 mL of Microscint-20 (Packard) and the wells counted on a TopCount (Packard).
[…] Counts per well were measured and percents of inhibition determined. […] Counts per well were measured and IC50s determined by linear regression.

CC[S+]([O-])CC(O)c1cc2cc([N+](=O)[O-])c(C(F)(F)F)cc2[nH]1 (mixture of isomers) [compound 180]
% Activity ([1]; 3000 nM): 2%
active / inactive (inhibition of testosterone-enhanced prostate weight) [2]: inactive

CC[S+]([O-])CC(C)(O)c1cc2cc(C(F)(F)F)c([N+](=O)[O-])cc2[nH]1 (mixture of isomers) [compound 230]
% Activity ([1]; 3000 nM): 0%
active / inactive (inhibition of testosterone-enhanced prostate weight) [2]: active

CSCCC(C)(O)c1cc2cc(Cl)c(C(F)(F)F)cc2[nH]1 (racemic) [compound 51]
% Activity ([1]; 3000 nM): 2%
active / inactive (inhibition of testosterone-enhanced prostate weight) [2]: inactive

CC(O)(CSc1ccc(N)cc1)c1cc2cc(Cl)c(C(F)(F)F)cc2n1S(C)(=O)=O (racemic) [compound 125]
% Activity ([1]; 3000 nM): −5%

CCSCC(C)(O)c1cc2cc(Cl)ccc2n1S(C)(=O)=O (racemic) [compound 154]
% Inhibition [3]: 50%
% Activity ([1]; 3000 nM): 2%
% Inhibition ([1]; L929 antagonist testing with R1881, 3000 nM): 7%

CCCSCC(C)(O)c1cc2cc(Cl)c(C(F)(F)F)cc2[nH]1 (racemic) [compound 196]
% Activity ([1]; 3000 nM): 13%
active / inactive (inhibition of testosterone-enhanced prostate weight) [2]: inactive

CC(O)(CSCc1ccco1)c1cc2cc([N+](=O)[O-])c(C(F)(F)F)cc2[nH]1 (racemic) [compound 198]
% Activity ([1]; 3000 nM): 7%
active / inactive (inhibition of testosterone-enhanced prostate weight) [2]: inactive

CC(O)(CS(=O)(=O)CC(F)(F)F)c1cc2cc([N+](=O)[O-])c(C(F)(F)F)cc2[nH]1 (racemic) [compound 208]
% Activity ([1]; 3000 nM): 1%
active / inactive (inhibition of testosterone-enhanced prostate weight) [2]: active

CC(O)(CSCC(F)(F)F)c1cc2cc(C#N)c(C(F)(F)F)cc2[nH]1 (racemic) [compound 211]
% Activity ([1]; 3000 nM): −1%

CCSCC(C)(O)c1[nH]c2cc(C(F)(F)F)c([N+](=O)[O-])cc2c1C (racemic) [compound 221]
% Activity ([1]; 3000 nM): −1%
active / inactive (inhibition of testosterone-enhanced prostate weight) [2]: inactive

CCS(=O)(=O)CC(C)(O)c1cc2cc(C#N)c(C(F)(F)F)cc2n1C (racemic) [compound 240]
% Activity ([1]; 3000 nM): 0%
active / inactive (inhibition of testosterone-enhanced prostate weight) [2]: inactive

CCS(=O)(=O)CC(C)(O)c1[nH]c2cc(C(F)(F)F)c(C#N)cc2c1C (racemic) [compound 246]
inhibition at 3 µM [3]: 70%

CSC(C)(O)c1cc2cc([N+](=O)[O-])c(C(F)(F)F)cc2[nH]1 (racemic) [compound 267]
% Activity ([1]; 3000 nM, 3 µM): −5% and 0%
active / inactive (inhibition of testosterone-enhanced prostate weight) [2]: inactive

CSCC(C)(O)c1cc2cc([N+](=O)[O-])c(C(F)(F)F)cc2[nH]1 (single isomer, unassigned) [compound 144]
% Activity ([1]; 3000 nM, 3 µM): 0%

CCSCC(C)(O)c1[nH]c2cc(C(F)(F)F)c([N+](=O)[O-])cc2c1C#N (single isomer, unassigned) [compound 247]
% Inhibition [3]: 90%
active / inactive (inhibition of testosterone-enhanced prostate weight) [2]: inactive

CCSCC(C)(O)c1cc2cc(C#N)c(C(F)(F)F)cc2[nH]1 (stereo not shown) [Compound #218, 2-(2-Ethylsulfanyl-1-hydroxy-1-methyl-ethyl)-6-trifluoromethyl-1H-indole-5-carbonitrile]
% Activity ([1]; 3000 nM): 0%
active / inactive (inhibition of testosterone-enhanced prostate weight) [2]: inactive

CCSCC(O)(CC)c1cc2cc(C#N)c(C(F)(F)F)cc2[nH]1 (stereo not shown) [Compound #223]
% Activity ([1]; @ 8000 nM): 0 @ 8000 nM %
active / inactive (inhibition of testosterone-enhanced prostate weight) [2]: active

O=[N+]([O-])c1cc2cc(C3(O)CCSCC3)[nH]c2cc1C(F)(F)F [compound 17]
IC50 [3]: > 1500 nM
active / inactive (inhibition of testosterone-enhanced prostate weight) [2]: inactive

CC(O)(CSc1ccccc1N)c1cc2cc(Cl)c(C(F)(F)F)cc2[nH]1 (stereo not shown) [compound 123]
% Activity ([1]; 3000 nM): −4%
% Activity ([1]; @ 8000 nM): 1 @ 8000 nM %
active / inactive (inhibition of testosterone-enhanced prostate weight) [2]: inactive

CN(C)c1ccc(SCC(C)(O)c2cc3cc(Cl)c(C(F)(F)F)cc3[nH]2)cc1 (stereo not shown) [compound 124]
% Activity ([1]; 3000 nM): −4%
active / inactive (inhibition of testosterone-enhanced prostate weight) [2]: inactive

CCSCC(C)(O)c1cc2cc(Cl)c(C(F)(F)F)cc2[nH]1 (stereo not shown) [compound 152]
inhibition at 3 µM [3]: 39%
active / inactive (inhibition of testosterone-enhanced prostate weight) [2]: inactive

CC(O)(CS(=O)(=O)CC(F)(F)F)c1[nH]c2cc([N+](=O)[O-])c(C(F)(F)F)cc2c1Cl (stereo not shown) [compound 207]
% Activity ([1]; 3000 nM, 3 µM): 1% and −1%
active / inactive (inhibition of testosterone-enhanced prostate weight) [2]: active

CCSCC(C)(O)c1[nH]c2cc(C(F)(F)F)c(C#N)cc2c1C (stereo not shown) [compound 219]
% Activity ([1]; 3000 nM, 3 µM): −3%
active / inactive (inhibition of testosterone-enhanced prostate weight) [2]: inactive

CCSCC(C)(O)c1[nH]c2cc(C(F)(F)F)c(Br)cc2c1C (stereo not shown) [compound 220]
inhibition at 3 µM ([1]; L929, L929 antagonist testing with R1881, 3000 nM): 103%
% Activity ([1]; 3000 nM): −3%
active / inactive (inhibition of testosterone-enhanced prostate weight) [2]: inactive

CCSCC(C)(O)c1[nH]c2cc(C(F)(F)F)c([N+](=O)[O-])cc2c1C#N (stereo not shown) [compound 242]
inhibition at 3 µM [3]: 92%
active / inactive (inhibition of testosterone-enhanced prostate weight) [2]: inactive
